In ChEMBL document CHEMBL4808226, “Optimization of the Urea Linker of Triazolopyridazine MMV665917 Results in a New Anticryptosporidial Lead with Improved Potency and Predicted hERG Safety Margin” (J Med Chem, 2021):
Converted amounts (≈) assume the structure as drawn. Each block holds one molecule with its values, some of them ahead of it. The source made the active and inactive calls. The calls are words filed in the database; no cut-off is given here.

Assays:
[1] = system: Cryptosporidium parvum; assay: Anti-cryptosporidial activity against Cryptosporidium parvum infected in HCT-8 cells pre-infected for 3 hrs followed by compound treatment and measured after 45 hrs by fluorescence microscopy analysis; format: functional, organism-based
[2] = Metabolic stability in human liver microsomes assessed as half life at 2 uM measured up to 30 mins in presence of NADPH by LC-MS/MS analysis; format: ADME, Microsome; details: for t1/2: microsomes, 0.5 h, 2 µM
[3] = (§1) Efflux ratio of apparent permeability across basolateral to apical side over apical to basolateral side in […] cells at 10 uM after 2 hrs; format: ADME, cell-based; details: mdckii-mdr1, 2 h, 10 µM
[4] = molecular target: T1, hERG (KCNH2) (Homo sapiens, UniProt Q12809); assay: Inhibition of human ERG expressed in CHO cells at 100 uM by automated patch clamp electrophysiology assay relative to control; format: cell-based; details: CHO cells that express hERG
[5] = system: Cryptosporidium hominis; assay: Anti-cryptosporidial activity against Cryptosporidium hominis infected in HCT-8 cells pre-infected for 3 hrs followed by compound treatment and measured after 45 hrs by fluorescence microscopy analysis; format: functional, organism-based
[6] = Kinetic aqueous solubility of the compound in pH 7.4; format: physicochemical; details: buffer, read-out: Kinetic_solubility
[7] = molecular target: T1, hERG (KCNH2); assay: Displacement of [3H]-dofetilide from human ERG at 10 uM relative to control; details: probe [3H]-dofetilide
[8] = system: HCT-8; assay: Cytotoxicity against human HCT8 cells assessed as reduction in cell viability after 48 hrs by CellTiter aqueous assay; format: cell-based; details: hct-8, 48 h
[9] = molecular target: T1, hERG (KCNH2); assay: Inhibition of human ERG expressed in CHO cells at 10 uM by automated patch clamp electrophysiology assay relative to control; format: cell-based; details: CHO cells that express hERG
[10] = molecular target: T1, hERG (KCNH2); assay: Inhibition of human ERG expressed in CHO cells at 1 uM by automated patch clamp electrophysiology assay relative to control; format: cell-based; details: CHO cells that express hERG
[11] = Metabolic stability in mouse liver microsomes assessed as half life at 2 uM measured up to 30 mins in presence of NADPH by LC-MS/MS analysis; format: ADME, Microsome; details: 0.5 h
[12] = system: MDR1 (P-gp); assay: as §1; format: ADME, cell-based; details: MDCK-MDR1
[13] = system: Cryptosporidium parvum; assay: Anti-cryptosporidial activity against Cryptosporidium parvum infected in HCT-8 cells assessed as rate of parasite elimination at 6 times of EC90 concentration pre-infected for 24 hrs followed by compound treatment; format: functional, organism-based

T1 sequence (Q12809 whole entry): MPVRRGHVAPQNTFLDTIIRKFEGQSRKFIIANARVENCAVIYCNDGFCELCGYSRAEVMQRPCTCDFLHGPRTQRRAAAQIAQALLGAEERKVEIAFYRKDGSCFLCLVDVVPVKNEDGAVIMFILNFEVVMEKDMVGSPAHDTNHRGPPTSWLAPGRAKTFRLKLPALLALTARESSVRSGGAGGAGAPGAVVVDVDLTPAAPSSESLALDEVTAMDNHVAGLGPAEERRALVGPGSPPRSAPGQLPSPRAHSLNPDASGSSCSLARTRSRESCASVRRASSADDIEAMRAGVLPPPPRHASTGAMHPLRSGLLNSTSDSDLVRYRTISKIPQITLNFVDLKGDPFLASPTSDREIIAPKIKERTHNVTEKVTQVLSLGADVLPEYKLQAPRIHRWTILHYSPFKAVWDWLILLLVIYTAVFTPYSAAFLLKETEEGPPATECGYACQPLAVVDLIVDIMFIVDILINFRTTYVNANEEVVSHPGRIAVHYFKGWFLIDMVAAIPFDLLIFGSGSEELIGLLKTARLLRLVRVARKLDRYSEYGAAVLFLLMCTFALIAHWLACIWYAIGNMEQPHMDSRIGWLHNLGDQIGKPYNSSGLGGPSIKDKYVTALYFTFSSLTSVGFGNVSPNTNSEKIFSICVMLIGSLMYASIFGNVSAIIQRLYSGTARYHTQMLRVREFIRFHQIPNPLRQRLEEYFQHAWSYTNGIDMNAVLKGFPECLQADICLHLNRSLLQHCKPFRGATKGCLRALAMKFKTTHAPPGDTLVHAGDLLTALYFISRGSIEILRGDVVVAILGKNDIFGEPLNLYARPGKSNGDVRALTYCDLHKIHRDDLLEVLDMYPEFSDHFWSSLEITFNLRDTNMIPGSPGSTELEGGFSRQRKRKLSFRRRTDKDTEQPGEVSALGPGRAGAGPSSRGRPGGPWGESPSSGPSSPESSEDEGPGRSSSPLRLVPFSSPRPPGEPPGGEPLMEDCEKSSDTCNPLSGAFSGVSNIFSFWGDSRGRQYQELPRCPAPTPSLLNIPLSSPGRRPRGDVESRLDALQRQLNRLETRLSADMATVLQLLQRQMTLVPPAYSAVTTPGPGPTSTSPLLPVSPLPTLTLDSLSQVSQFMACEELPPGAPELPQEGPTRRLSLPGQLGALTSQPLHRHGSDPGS

Compound: O=C(Nc1ccc(Cl)c(Cl)c1)N1CCC(c2ccc3nncn3n2)CC1
t1/2 [2]: > 30 min | EC50 [1]: 7 µM | Ratio [3]: 6.6

Compound: O=C(c1ccc(Cl)c(Cl)c1)N1CCN(c2ccc3nncn3n2)CC1
EC50 [1]: > 25 µM

Compound: CN(C(=O)N1CCN(c2ccc3nncn3n2)CC1)c1ccc(Cl)c(Cl)c1
EC50 [1]: 29 µM

Compound: O=C(Cc1ccccc1)N1CCN(c2ccc3nncn3n2)CC1
inhibition at 10 µM [7]: 4% | EC50 [1]: 22 µM

Compound: O=C(Cc1ccc(Cl)c(Cl)c1)NC1CCN(c2ccc3nncn3n2)CC1
EC50 [1]: > 25 µM

Compound: O=C(Cc1ccc(Cl)c(Cl)c1)N1CCC(Nc2ccc3nncn3n2)CC1
EC50 [1]: > 25 µM

Compound: COc1ccc(CC(=O)N2CCN(c3ccc4nncn4n3)CC2)cc1
EC50 [1]: 17 µM

Compound: O=C(N1CCN(c2ccc3nncn3n2)CC1)C1(c2ccc(Cl)c(Cl)c2)CC1
EC50 [1]: 8.5 µM

Now those with a lower EC50 [1], led by results:

EC50 [1]: 2.3 µM
Compound: O=C(N1CCN(c2ccc3nncn3n2)CC1)C(F)(F)c1ccc(Cl)c(Cl)c1

EC50 [1]: 0.86 µM
Compound: O=C(Cc1ccc(F)cc1)N1CCN(c2ccc3nncn3n2)CC1

EC50 [5]: 6 µM | solubility kinetic [6]: 200 µM (≈ 71.6 µg/mL) | t1/2 [2]: > 30 min | EC50 [1]: 2.1 µM | Ratio [3]: 8.9 | t1/2 [11]: > 30 min
Compound: O=C(Nc1ccc(Cl)cc1)N1CCN(c2ccc3nncn3n2)CC1
inhibition at 100 µM [4]: 88% | inhibition at 10 µM [7]: 8% | CC50 [8]: > 100 µM | inhibition at 10 µM [9]: 48% | inhibition at 1 µM [10]: 12%

EC50 [1]: 3.5 µM
Compound: O=C(Cc1cccc(Cl)c1)N1CCN(c2ccc3nncn3n2)CC1

solubility kinetic [6]: 59 µM (≈ 23 µg/mL) | half-life at 2 µM ([2]; liver microsomes): > 30 min | EC50 [1]: 0.61 µM | efflux ratio at 2 h, 10 µM [12]: 6.5
Compound: O=C(Nc1ccc(Cl)c(Cl)c1)N1CC=C(c2ccc3nncn3n2)CC1
inhibition at 10 µM [7]: 56%

EC50 [5]: 0.56 µM | solubility kinetic [6]: 1.8 µM (≈ 0.706 µg/mL) | t1/2 [2]: > 30 min | EC50 [1]: 0.55 µM | Ratio [3]: 12 | t1/2 [11]: > 30 min
Compound: O=C(Nc1ccc(Cl)c(Cl)c1)N1CCN(c2ccc3nncn3n2)CC1
inhibition at 100 µM [4]: 94% | inhibition at 10 µM [7]: 56% | CC50 [8]: > 100 µM | inhibition at 10 µM [9]: 87% | inhibition at 1 µM [10]: 41% | Activity [13]: Active

solubility kinetic [6]: 10 µM (≈ 3.57 µg/mL) | t1/2 [2]: > 30 min | EC50 [1]: 0.66 µM | Ratio [3]: 3 | t1/2 [11]: > 30 min
Compound: O=C(Cc1ccc(Cl)cc1)N1CCN(c2ccc3nncn3n2)CC1
inhibition at 10 µM [7]: 2%
